Test results from paper PMC12005787, “Synthetic Lethality of SHP2 and XIAP Suppresses Proliferation and Metastasis in KRAS‐mutant Nonsmall Cell Lung Cancer” (Advanced Science, 2025).
Read-outs that look alike come from different tables or passages of the source.

What was measured:
NCI‐H2122 and A549 cells = assay: Intracellular ATP assay; assay type: cell-based, human; conditions: monolayer 24 h and 3D culture 48 h
Method: (§1) supplies are listed in Supplementary Table S5. […]
(§2) For the adherent cell viability assay, cells in the logarithmic growth phase were seeded in 96-well culture plates at a density of 5×103 well-1 and incubated overnight. Diluted compounds or DMSO were added, or specific treatments were incubated at 37 °C and 5% CO2 for 24 h or 48 h. Cell viability was determined using CCK-8 or CellLightTM Cell Viability Assay Kit, according to the manufacturer's protocol. The luminescence signals of the treated samples were normalized to those of the DMSO group.
For spherical cell viability assays, cells in the logarithmic growth phase were inoculated ata density of 4×10^3 well-1 into 96-well spherical cell microplates and incubated at 37 °C, 5% CO2 for 24 h or 48 h. Cell viability was measured using the CellTiter-Glo® Luminescent Cell Viability 3D Cell Viability Assay Kit, according to the manufacturer’s protocol. The remaining steps were the same as those described above. […]

[1] = system: MIG‐6 and SPRY2 in NCI‐H2122 cells; assay: MIG-6 and SPRY2 protein expression (western blotting); assay type: cell-based, human; conditions: 24 h
Method: Transwell, and the subsequent experiments were performed as described in Cell migration […]
After given treatment, cells were lysed by ice bath with radio-immunoprecipitation assay (RIPA) buffer containing 1% phenylmethylsulphonyl fluoride (PMSF), and the supernatant was collected by centrifugation, and the protein concentration was subsequently determined using a BCA Protein Assay Kit. Depending on the molecular weight of the proteins, different concentrations of sodium dodecyl-sulfate polyacrylamide gel electrophoresis (SDS-PAGE) separator gels were prepared for protein electrophoresis. Equal amounts of proteins were sampled and subjected to SDS-PAGE gel electrophoresis; at the end of electrophoresis, the proteins were transferred to nitrocellulose (NC) membranes. The NC membrane was blocked with 5% skim milk and covered with a specific primary antibody overnight at 4 °C, in which the primary antibody was diluted at a ratio of 1:500–1:5000. The NC membrane was […]

NCI-H1975 cells = assay: Cell viability assay (CCK-8); assay type: cell-based; conditions: Homo sapiens, NCI-H1975, 24 h, NCI-H1975, RAS-wild type, EGFR L858R/T790M
Method: as §1
(§3) KRAS-mutant and wild-type cells are listed in Supplementary Table S7.
as §2, with “group. […]” for “group.”

ACHN cells = assay: Cell viability assay (CCK-8); assay type: cell-based; conditions: Homo sapiens
Method: as §1, §3
as §2, with “group. […]” for “group.”

MDA-MB-231 cells = assay: Cell viability assay (CCK-8); assay type: cell-based; conditions: Homo sapiens
Method: as §1, §3
as §2, with “group. […]” for “group.”

NCI-H1299 cells = assay: Cell viability assay (CCK-8); assay type: cell-based; conditions: Homo sapiens
Method: as §1, §3
as §2, with “group. […]” for “group.”

[2] = system: NCI-H2122, A549, and NCI-H1944 cells; assay: Cell senescence β-galactosidase staining; assay type: cell-based, human; conditions: A549, NCI‐H2122, and NCI‐H1944 cells
Method: Cell senescence β-galactosidase staining
NCI-H2122, A549, and NCI-H1944 cells in the logarithmic growth phase were seeded into 48-well plates and cultured overnight. The supernatant was aspirated and fresh serum-free (0%), low-serum (3%), or regular serum (10%) medium with different drugs was added for 48 h. When the supernatant was discarded, β-galactosidase staining fixation fluid were added for 15 min and β-galactosidase staining solution were imported overnight at 37 ℃.
Finally, the staining results were recorded using an inverted microscope.

CCCCCCCCCCCC1=C(O)C(=O)C=C(O)C1=O [Embelin]
effect on intracellular ATP (NCI‐H2122 and A549 cells): significantly inhibited ATP release
expression of MIG‐6 and SPRY2 [1]: significantly promoted the expression
IC50 (NCI-H1975 cells): 7.4 ± 0.83 µM
IC50 (ACHN cells; 48 h, read-out: IC50 at 48 h): 10.3 ± 0.7 µM
IC50 (ACHN cells; HRAS, 24 h, read-out: IC50 at 24 h): 27.4 ± 0.3 µM
IC50 (MDA-MB-231 cells; MDA-MB-231, 48 h, read-out: IC50 at 48 h): 11.5 ± 0.7 µM
IC50 (MDA-MB-231 cells; MDA-MB-231, KRAS G13D, 24 h, read-out: IC50 at 24 h): 13.6 ± 0.2 µM
IC50 (NCI-H1299 cells; NCI-H1299, 48 h, read-out: IC50 at 48 h): 13.1 ± 0.6 µM
IC50 (NCI-H1299 cells; NCI-H1299, NRAS, 24 h, read-out: IC50 at 24 h): 19.6 ± 1 µM
induction of cell senescence [2]: induced senescence
